Reference: ChEMBL document CHEMBL3217491, “Design, synthesis and biological evaluation of imidazopyridine/pyrimidine-chalcone derivatives as potential anticancer agents” (2010)
Calls of active or inactive are those of the source. The rule behind the calls is not given here.

What was measured:
MCF7 [1] = experiment: Cell cycle arrest in human MCF7 cells assessed as accumulation at S phase at 4 uM after 24 hrs by propidium iodide staining-based flow cytometry (reference value: 20.17%); format: functional
MCF7 [2] = experiment: Induction of apoptosis in human MCF7 cells expressing P21 promoter -145/+8 with luciferase gene assessed as upregulation of p21 protein expression at 4 uM by Western blot analysis relative to control; format: functional, cell-based
MCF7 [3] = experiment: Cell cycle arrest in human MCF7 cells assessed as accumulation at G0/G1 phase at 4 uM after 24 hrs by propidium iodide staining-based flow cytometry (reference value: 64.04%); format: functional
MCF7 [4] = experiment: Growth inhibition of human MCF7 cells assessed as cell viability at 4 uM after 24 hrs by MTT assay; format: functional, cell-based
MCF7 [5] = experiment: Cell cycle arrest in human MCF7 cells assessed as accumulation at G2/M phase at 4 uM after 24 hrs by propidium iodide staining-based flow cytometry (reference value: 15.79%); format: functional
[6] = Growth inhibition of human HCC2998 cells after 48 hrs by SRB assay; format: functional; settings: HCC 2998, 48 h
[7] = Growth inhibition of human BT549 cells after 48 hrs by SRB assay; format: functional; settings: BT-549, 48 h
CAKI-1 = experiment: Growth inhibition of human Caki1 cells after 48 hrs by SRB assay; format: functional; settings: CAKI-1, 48 h
786-0 = experiment: Growth inhibition of human 786-0 cells after 48 hrs by SRB assay; format: functional; settings: 786-0, 48 h
U-251 = experiment: Growth inhibition of human U251 cells after 48 hrs by SRB assay; format: functional; settings: U-251, 48 h
HCT-116 = experiment: Growth inhibition of human HCT116 cells after 48 hrs by SRB assay; format: functional; settings: HCT-116, 48 h
SNB-19 = experiment: Growth inhibition of human SNB19 cells after 48 hrs by SRB assay; format: functional; settings: SNB-19, 48 h
[8] = Growth inhibition of human NCI-ADR-RES cells after 48 hrs by SRB assay; format: functional
[9] = Growth inhibition of human UACC62 cells after 48 hrs by SRB assay; format: functional; settings: UACC-62, 48 h
NCI-H322M = experiment: Growth inhibition of human NCI-H322M cells after 48 hrs by SRB assay; format: functional
[10] = Growth inhibition of human MOLT4 cells after 48 hrs by SRB assay; format: functional; settings: MOLT-4, 48 h
PC-3 = experiment: Growth inhibition of human PC3 cells after 48 hrs by SRB assay; format: functional; settings: PC-3, 48 h
COLO 205 = experiment: Growth inhibition of human COLO205 cells after 48 hrs by SRB assay; format: functional; settings: COLO 205, 48 h
SK-OV-3 = experiment: Growth inhibition of human SKOV3 cells after 48 hrs by SRB assay; format: functional; settings: SK-OV-3, 48 h
SK-MEL-5 = experiment: Growth inhibition of human SK-MEL-5 cells after 48 hrs by SRB assay; format: functional; settings: SK-MEL-5, 48 h
A498 = experiment: Growth inhibition of human A498 cells after 48 hrs by SRB assay; format: functional; settings: A498, 48 h
Malme-3M = experiment: Growth inhibition of human MALME-3M cells after 48 hrs by SRB assay; format: functional
NCI-H226 = experiment: Growth inhibition of human NCI-H226 cells after 48 hrs by SRB assay; format: functional; settings: NCI-H226, 48 h
RPMI-8226 = experiment: Growth inhibition of human RPMI8226 cells after 48 hrs by SRB assay; format: functional; settings: RPMI-8226, 48 h
SW-620 = experiment: Growth inhibition of human SW620 cells after 48 hrs by SRB assay; format: functional; settings: SW-620, 48 h
HT-29 = experiment: Growth inhibition of human HT-29 cells after 48 hrs by SRB assay; format: functional; settings: HT-29, 48 h
SK-MEL-2 = experiment: Growth inhibition of human SK-MEL-2 cells after 48 hrs by SRB assay; format: functional; settings: SK-MEL-2, 48 h
[11] = Growth inhibition of human HCT15 cells after 48 hrs by SRB assay; format: functional; settings: HCT-15, 48 h
NCI-H522 = experiment: Growth inhibition of human NCI-H522 cells after 48 hrs by SRB assay; format: functional; settings: NCI-H522, 48 h
HOP-62 = experiment: Growth inhibition of human HOP62 cells after 48 hrs by SRB assay; format: functional; settings: HOP-62, 48 h
SK-MEL-28 = experiment: Growth inhibition of human SK-MEL-28 cells after 48 hrs by SRB assay; format: functional; settings: SK-MEL-28, 48 h
[12] = Growth inhibition of human OVCAR5 cells after 48 hrs by SRB assay; format: functional; settings: OVCAR-5, 48 h
SNB-75 = experiment: Growth inhibition of human SNB75 cells after 48 hrs by SRB assay; format: functional; settings: SNB-75, 48 h
MDA-MB-468 = experiment: Growth inhibition of human MDA-MB-468 cells after 48 hrs by SRB assay; format: functional; settings: MDA-MB-468, 48 h
ACHN = experiment: Growth inhibition of human ACHN cells after 48 hrs by SRB assay; format: functional
[13] = Growth inhibition of human OVCAR4 cells after 48 hrs by SRB assay; format: functional; settings: OVCAR-4, 48 h
SF-268 = experiment: Growth inhibition of human SF268 cells after 48 hrs by SRB assay; format: functional; settings: SF-268, 48 h
SR = experiment: Growth inhibition of human SR cells after 48 hrs by SRB assay; format: functional
NCI-H460 = experiment: Growth inhibition of human NCI-H460 cells after 48 hrs by SRB assay; format: functional; settings: NCI-H460, 48 h
T47D = experiment: Growth inhibition of human T47D cells after 48 hrs by SRB assay; format: functional
CCRF-CEM = experiment: Growth inhibition of human CCRF-CEM cells after 48 hrs by SRB assay; format: functional
A549 = experiment: Growth inhibition of human A549 cells after 48 hrs by SRB assay; format: functional; settings: A549, 48 h
K562 = experiment: Growth inhibition of human K562 cells after 48 hrs by SRB assay; format: functional; settings: K562, 48 h
SN12C = experiment: Growth inhibition of human SN12C cells after 48 hrs by SRB assay; format: functional
IGROV-1 = experiment: Growth inhibition of human IGROV1 cells after 48 hrs by SRB assay; format: functional; settings: IGROV-1, 48 h
[14] = Growth inhibition of human UO31 cells after 48 hrs by SRB assay; format: functional; settings: UO-31, 48 h
[15] = Growth inhibition of human UACC257 cells after 48 hrs by SRB assay; format: functional; settings: UACC-257, 48 h
MCF7 [16] = experiment: Growth inhibition of human MCF7 cells after 48 hrs by SRB assay; format: functional; settings: MCF7, 48 h
[17] = Growth inhibition of human LOXIMVI cells after 48 hrs by SRB assay; format: functional; settings: LOX IMVI
[18] = Growth inhibition of human RXF393 cells after 48 hrs by SRB assay; format: functional; settings: RXF 393, 48 h
[19] = Growth inhibition of human Hs578T cells after 48 hrs by SRB assay; format: functional; settings: Hs-578T
[20] = Growth inhibition of human SF295 cells after 48 hrs by SRB assay; format: functional; settings: SF-295, 48 h
TK-10 = experiment: Growth inhibition of human TK10 cells after 48 hrs by SRB assay; format: functional; settings: TK-10, 48 h
[21] = Growth inhibition of human EKVX cells after 48 hrs by SRB assay; format: functional
M14 = experiment: Growth inhibition of human M14 cells after 48 hrs by SRB assay; format: functional; settings: M14, 48 h
HL-60(TB) = experiment: Growth inhibition of human HL-60(TB) cells after 48 hrs by SRB assay; format: functional; settings: HL-60, 48 h
NCI-H23 = experiment: Growth inhibition of human NCI-H23 cells after 48 hrs by SRB assay; format: functional; settings: NCI-H23, 48 h
KM12 = experiment: Growth inhibition of human KM12 cells after 48 hrs by SRB assay; format: functional; settings: KM12, 48 h
MDA-MB-435 = experiment: Growth inhibition of human MDA-MB-435 cells after 48 hrs by SRB assay; format: functional; settings: MDA-MB-435, 48 h
MDA-MB-231 = experiment: Growth inhibition of human MDA-MB-231 cells after 48 hrs by SRB assay; format: functional; settings: MDA-MB-231, 48 h
[22] = Growth inhibition of human OVCAR3 cells after 48 hrs by SRB assay; format: functional; settings: OVCAR-3, 48 h
[23] = Growth inhibition of human SF539 cells after 48 hrs by SRB assay; format: functional; settings: SF-539, 48 h
[24] = Growth inhibition of human OVCAR8 cells after 48 hrs by SRB assay; format: functional; settings: OVCAR-8, 48 h
DU-145 = experiment: Growth inhibition of human DU145 cells after 48 hrs by SRB assay; format: functional; settings: DU-145, 48 h
[25] = Growth inhibition of human HOP92 cells after 48 hrs by SRB assay; format: functional; settings: HOP-92, 48 h

In the case of `COc1cccc2c1C(=O)c1c(O)c3c(c(O)c1C2=O)C[C@@](O)(C(=O)CO)C[C@@H]3O[C@H]1C[C@H](N)[C@H](O)[C@H](C)O1` [DOXORUBICIN], the Activity (MCF7 [1]) is reported as 4%, the Activity (MCF7 [2]) is reported as “Active” and the Activity (MCF7 [3]) is reported as 94.85%. For the same compound, the inhibition (MCF7 [4]) was “Active” and the Activity (MCF7 [5]) was 1.15%.
For `COc1ccc(-c2nc3ccccn3c2/C=C/C(=O)c2cc(OC)c(OC)c(OC)c2)cc1`, the GI50 [6] was 8.27 µM, the GI50 [7] was 3.27 µM and the GI50 (CAKI-1) was 8.33 µM. It also gave an Activity (MCF7 [1]) of 11.65%, a GI50 (786-0) of 3.9 µM and a GI50 (U-251) of 3 µM. It also gave a GI50 (HCT-116) of 2.26 µM, a GI50 (SNB-19) of 25.2 µM and a GI50 [8] of 3.36 µM. It also gave a GI50 [9] of 5.58 µM, a GI50 (NCI-H322M) of 4.63 µM and a GI50 [10] of 32.9 µM. It also gave a GI50 (PC-3) of 19.8 µM, a GI50 (COLO 205) of 3.5 µM and a GI50 (SK-OV-3) of 14.8 µM. It also gave a GI50 (SK-MEL-5) of 2.72 µM, a GI50 (A498) of 10.4 µM and a GI50 (Malme-3M) of 1.56 µM. It also gave a GI50 (NCI-H226) of 24.1 µM, a GI50 (RPMI-8226) of 7.5 µM and a GI50 (SW-620) of 4.16 µM. The GI50 (HT-29) was 4.8 µM, the GI50 (SK-MEL-2) was 4.95 µM and the GI50 [11] was 4.85 µM. For the same compound, the GI50 (NCI-H522) was 3.12 µM, the GI50 (HOP-62) was 3.62 µM and the GI50 (SK-MEL-28) was 7.1 µM. For the same compound, the GI50 [12] was 9.33 µM, the GI50 (SNB-75) was 5.49 µM and the GI50 (MDA-MB-468) was 11.9 µM. It also gave a GI50 (ACHN) of 3.26 µM, a GI50 [13] of 5.72 µM and a GI50 (SF-268) of 4 µM. The GI50 (SR) was 3.71 µM, the GI50 (NCI-H460) was 4.09 µM and the GI50 (T47D) was 2.59 µM. It also gave a GI50 (CCRF-CEM) of 18.8 µM, a GI50 (A549) of 7.96 µM and an Activity (MCF7 [3]) of 85.55%. The GI50 (K562) was 13.1 µM, the GI50 (SN12C) was 11.4 µM and the GI50 (IGROV-1) was 8.86 µM. The GI50 [14] was 1.31 µM, the inhibition (MCF7 [4]) was “Active” and the GI50 [15] was 5.85 µM. For the same compound, the GI50 (MCF7 [16]) was 2.38 µM, the GI50 [17] was 6.05 µM and the GI50 [18] was 2.94 µM. For the same compound, the GI50 [19] was 2.89 µM, the GI50 [20] was 15.2 µM and the GI50 (TK-10) was 4.16 µM. For the same compound, the GI50 [21] was 7.42 µM, the GI50 (M14) was 9.8 µM and the GI50 (HL-60(TB)) was 34 µM. It also gave a GI50 (NCI-H23) of 3.41 µM, a GI50 (KM12) of 4.99 µM and a GI50 (MDA-MB-435) of 5.76 µM. The GI50 (MDA-MB-231) was 5.22 µM, the GI50 [22] was 2.88 µM and the GI50 [23] was 2.39 µM. For the same compound, the GI50 [24] was 3.92 µM, the GI50 (DU-145) was 7.21 µM and the Activity (MCF7 [5]) was 2.8%. For the same compound, the GI50 [25] was 2.36 µM.
